Laboratory results from PubChem BioAssay AID179 (DTP/NCI, 2004).
Where “and” joins values, the source holds several entries; their conditions need not be identical. Identical values can stand only once. Calls of active or inactive are those of the source.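 Rule for the calls: active = compounds giving half or more protection of infected cells from virus-caused growth loss, again on retest; inactive = the rest.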 Where a SMILES comes first, the peptide text is derived from it. The star is where a group is joined. Cbz = O=C(OCc1ccccc1)*

Tested on: CEM cells HIV-1 protection, formazan growth assay
Test: NCI AIDS Antiviral Assay
Details: for IC50: measured here: growth of uninfected CEM cells
Procedure, shortened: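 Soluble formazan readout of cell growth; CEM cells ± HIV-1; 5 drug concs. ≥50% protection → retest; ≥50% again = moderately active; reproducible 100% = confirmed active.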

Row | Structure (SMILES) | EC50 [µM] | IC50 | outcome
1 | COc1ccc(-n2cnc3c2NC(C)(C)N=C3C(N)=O)c(OC)c1 | > 200 | > 200 µM | 
2 | CC(C)[P+](c1ccccc1)(c1ccccc1)c1ccccc1 | > 200 | 5.5 µM | 
3 | COc1cccc2c(=O)c3c(O)c4cc(N(C)C)ccc4c(OC(C)=O)c3oc12 | > 200 | 8.91 µM | 
4 | CC(=O)N1C(OCc2ccccc2)CCN1c1ccccc1 (stereo not given) | > 200 | > 200 µM | 
5 | CC1(C)C2CCC(N)(C2)C1O (stereo not given) | > 200 | > 200 µM | 
6 | CCOC(=O)/C(=C/c1ccncc1)C(=O)c1ccccc1 | > 129 | > 129 µM | 
7 | CC(=Nc1ccccc1C(=O)O)c1c(O)ccc2c(C)cc(=O)oc12 | > 107 | > 107 µM | 
8 | O=S(=O)(SC1=NCCN1)c1cccc2ccccc12 | > 81.3 | 37.2 µM | 
9 | N=C1/C(=C/c2ccccc2)C(=O)N=C2SC=NN12 | > 200 | > 200 µM | 
10 | Cc1csc2nc(-c3ccccc3)cn12 | > 437 | 204 µM | 
11 | CC(=O)OCC1OC(n2cnc3nc(Br)[nH]c(=O)c32)C(OC(C)=O)C1OC(C)=O (stereo not given) | 61.7 | > 200 µM | 
12 | C[N+](C)(CCNc1ccc(NCC[N+](C)(C)Cc2ccc([N+](=O)[O-])cc2)c2c1C(=O)c1ccccc1C2=O)Cc1ccc([N+](=O)[O-])cc1 | > 151 | > 151 µM | 
13 | C=C1C(=O)O[C@@H]2[C@H]1CCC(C)=C1C=CC(=O)[C@]12C |  |  | inactive
14 | COc1cc2cc(OC(C)=O)c3cc4c(cc3c2c(OC)c1OC)OCO4 | > 676 | > 676 µM | 
15 | O=C1C=C(Br)c2c(-c3ccccc3)oc3cccc1c23 |  |  | inactive
16 | COc1ccc(N2C(=O)CC(c3c[nH]c4ccccc34)C2=O)cc1 (stereo not given) | > 200 | 182 µM | 
17 | CC(=O)NC1C(OCc2ccccc2)OC(CO)C(O)C1OC(C)C(=O)NC(C(=O)NC(CCC(=O)NCCCCNc1c2ccccc2nc2cccc([N+](=O)[O-])c12)C(N)=O)C(C)C (stereo not given) | > 100 | 1.12 µM | 
18 | Cc1cccc(/C(Br)=C2/OC(=O)c3ccccc32)c1 | > 200 | 182 µM | 
19 | COC(=O)CCCN(C)c1n[nH]c(N)n1 | > 200 | > 200 µM | 
20 | N#Cc1c(N)oc(-c2ccc([N+](=O)[O-])cc2)c1C#N | > 200 | 67.6 µM | 
21 | COc1cc(/C=c2\sc3n(c2=O)C(c2ccc(Cl)cc2)C2=C(CCCC2C)N=3)cc(OC)c1OC (stereo not given) | > 200 | > 200 µM | 

Row | Structure (SMILES) | EC50 [µM] | IC50 | outcome
22 | CN(C)CC1CCC/C(=C\c2ccc(OC(=O)/C=C/c3ccc(Cl)cc3)cc2)C1=O (stereo not given) | > 50.1 | 2.19 µM | 
23 | CCOC(=O)CC1NCCc2cc(OC)c(OC)c([N+](=O)[O-])c21 (stereo not given) |  |  | inactive
24 | Cc1cc(=N)cc(C)n1O | > 1820 | > 1820 µM | 
25 | COc1ccc2oc(=O)c3c(c2c1C)OC(C)(C)C=C3 | > 200 | > 100 µM | 
26 | CCCCN(CC)C(=O)C1=C(C)NC(C)=C(C(=O)N(CC)CCCC)C1 | > 200 | 135 µM | 
27 | CC1=C(C(=O)NCc2ccccc2)C(c2ccccc2C)C(C(=O)NCc2ccccc2)=C(C)N1 | > 21.4 | > 21.4 µM | 
28 | COC1/C=C/OC2(C)Oc3c(C)c(O)c4c(O)c(c(/C=N/N5C(C)CN(Cc6ccccc6C#N)CC5C)c(O)c4c3C2=O)NC(=O)/C(C)=C\C=C\C(C)C(O)C(C)C(O)C(C)C(OC(C)=O)C1C (stereo not given) | > 200 | 7.41 µM | 
29 | O=C(O)CNC(=O)c1ccccc1SC(=O)CCCC[n+]1ccccc1 | > 200 | > 200 µM | 
30 | CCCC(C(=O)OCCN(CC)CC)(c1ccccc1)c1ccccc1 | > 200 | 102 µM and 37.2 µM | 
31 | CC(CCC(=O)O)CCC(=O)O | > 1450 | > 1450 µM | 
32 | C=CCNC(=S)/N=C/C(C(=O)Nc1ccc(Cl)cc1)=C(\C)O | > 200 | 129 µM | 
33 | CCSC1=CC(Cc2ccc(OC)cc2)N(C(=O)OC)C1 (stereo not given) | > 85.1 | 60.3 µM | 
34 | CN(C)CCCCN1c2ccccc2Sc2cc(N=[N+]=[N-])ccc21 | > 200 | 2.45 µM | 
35 | Cc1ccc(C2C(C(=O)C(C)(C)C)N2S(=O)(=O)c2ccc(C)cc2)cc1 (stereo not given) | > 200 | > 200 µM | 
36 | O=c1oc2ccccc2c(O)c1C(c1ccc(OCc2ccccc2)cc1)c1c(O)c2ccccc2oc1=O | > 200 | 30.2 µM | 
37 | OC[C@H]1C[C@@H]2Cc3ccccc3N2N1 | > 200 | > 200 µM | 
38 | O=C(C(=Cn1c(=O)cc[nH]c1=S)C(=O)c1ccccc1)c1ccccc1 |  |  | inactive
39 | CCOC(=O)C(C)(C)C(OP(=S)(OCC)OCC)=C(C)C | > 3.09 | > 3.09 µM | 
40 | CCC1CN2CCc3cc(OC)c(OC)cc3C2CC1CC1c2cc(OC)c(OC)cc2CCN1C(=O)C(N)Cc1ccccc1 (stereo not given) |  |  | inactive
41 | Cc1ccc(C(=O)c2c(C)cccc2C(=O)O)c(C)c1 | > 200 | > 200 µM | 
42 | CC1Cc2c(Br)nc(N)nc2NC1=O (stereo not given) | > 200 | > 200 µM | 

Row | Structure (SMILES) | EC50 [µM] | IC50 | outcome
43 | O=C1c2ccccc2C(=O)N1CC(O)COc1cccc2ccccc12 (stereo not given) | > 200 | > 200 µM | 
44 | Cc1cccc(-c2cc(=O)c3cc(C)c(C)c(C(=O)O)c3o2)c1 |  |  | inactive
45 | COc1cc(NC=C2C(=O)OC(C)(C)OC2=O)c(OC)c(C)c1OC | > 200 | > 200 µM | 
46 | C=CCNC(=O)N(CCC)CCCCC(NC(C)=O)C(=O)NCc1ccccc1 (stereo not given) | > 89.1 | > 89.1 µM | 
47 | CSC1CC2C(CC1(C)SC)C2(C)C (stereo not given) | > 155 | > 155 µM | 
48 | CN1C(c2ccccc2)CC(=NOCc2ccccc2)CC1c1ccccc1 (stereo not given) | > 200 | 8.71 µM | 
49 | CCSc1nnc(-c2ccccc2)nc1Cc1ccc(OC)cc1 | > 14.8 | > 14.8 µM | 
50 | CC1=C(C(=O)NNC(=O)C[N+](C)(C)C)CC(C(=O)NNC(=O)C[N+](C)(C)C)=C(C)N1 | > 200 | 95.5 µM | 
51 | O=C(Nc1ccc(C2=NCCN2)cc1)c1ccc(C(=O)Nc2ccc(C3=NCCN3)cc2)c(Br)c1 | 8.32 | 20.9 µM | 
52 | COC(=O)c1c(C)cccc1C1CN=NC12Cc1ccc(C)cc1C2=O (stereo not given) | > 72.4 | 41.7 µM | 
53 | Cc1cc(S(=O)(=O)Nc2nc(N)nc3nc4ccccc4n23)c(S)cc1Cl | 95.5 | 380 µM | 
54 | COc1ccc2c(=O)c3ccoc3[nH]c2c1 | > 100 | > 100 µM | 
55 | COc1c(Br)c(=O)n(C)c(=O)n1C | > 200 | > 200 µM | 
56 | CCSc1nc2c([nH]1)c(=S)n(C)c(=S)n2C | > 200 | 41.7 µM | 
57 | COc1cc(C(=O)n2c3ccc(Br)cc3c3nc4ccccc4nc32)cc(OC)c1OC | > 50.1 | > 50.1 µM | 
58 | CCN(CC)CC(=O)N(CC)c1ccc(C)c(Cl)c1 | > 200 | > 200 µM | 
59 | C#CC1(O)CCC2C3CCc4cc(Oc5nc(F)nc(-c6c7cc8ccccc8cc7c(SCC)n6CCC)n5)ccc4C3CCC21C (stereo not given) |  |  | inactive
60 | C=C1CCC/C(=N/NC(N)=O)C12CC2 | > 200 | > 200 µM | 
61 | Cc1nc2n(C)c3ncn(Cc4ccccc4)c3c(=O)n2c1/C=C/C(C)C | > 33.1 | > 33.1 µM | 
62 | Clc1ccc(C2=CCN3CC=C(c4ccc(Cl)cc4)C23)cc1 | > 200 | 10.7 µM | 
63 | CCOC(=O)N(CCCCCCNC(c1ccccc1)S(=O)(=O)O)c1ccccc1 (stereo not given) | > 200 | 1.82 µM | 

Row | Structure (SMILES) | EC50 [µM] | IC50 | outcome
64 | NNC(=O)NNC(=O)NN | > 200 | > 200 µM | 
65 | N#CC1(c2nc3ccccc3o2)C(=O)C(=O)N(C2C3CC4CC(C3)CC2C4)C(=O)C1=O (stereo not given) | > 107 | > 107 µM | 
66 | CCOC(=O)c1c(-c2ccc(O)c(OC)c2)c(C#N)c(=S)n(C2OC(CO)C(O)C(O)C2O)c1-c1ccccc1 (stereo not given) | > 200 | > 200 µM and 117 µM | 
67 | CCOC(=O)CCC(NC(=O)C(CC(=O)OC)NC(=O)OCc1ccccc1)C(=O)NC(CC(=O)OC)C(=O)NC(CCC(=O)OCC)C(=O)NC(CC(=O)OC)C(=O)NC(CCC(=O)OCC)C(=O)NC(CC(=O)OC)C(=O)NC(CCC(=O)OCC)C(=O)NC(CC(=O)OC)C(=O)NC(CCC(=O)OCC)C(=O)NC(CC(=O)OCC)C(=O)OCC (stereo not given) (Cbz-D(OMe)E(OEt)D(OMe)E(OEt)D(OMe)E(OEt)D(OMe)E(OEt)D(OMe)E(OEt)D(OEt)-OEt; configuration not given here) | > 50.1 | > 50.1 µM | 
68 | CCOc1ccc(NCC(=O)N2CC(=O)Nc3ccccc32)cc1 | > 22.4 | > 22.4 µM | 
69 | CC(=O)N(/N=C1\CC(c2ccccc2)Oc2ccccc21)C(C)=O (stereo not given) | > 200 | 102 µM | 
70 | COc1ccc(-c2cn3c(nc4ccccc43)c(C)n2)cc1 | > 200 | > 200 µM | 
71 | CC(C)/C(Cl)=N\OC(NC(=O)P(=O)(c1ccccc1)c1ccccc1)(C(F)(F)F)C(F)(F)F | > 200 | 10.5 µM | 
72 | OCC1(C(F)(F)F)OC(n2cncn2)CC1O (stereo not given) | > 200 | > 200 µM | 
73 | C=CCN1CC2CON(C(=O)C(OC)(c3ccccc3)C(F)(F)F)C2C1C(C)C (stereo not given) | > 200 | 37.2 µM | 
74 | Cc1ccc(S(=O)(=O)N2CCn3ncc(C#N)c32)cc1 | > 186 | > 186 µM | 
75 | Cc1ccc(-c2n[nH]c(=O)n2/N=C\c2ccccc2O)cc1 | > 200 | > 200 µM | 
76 | Cc1cc(C)c(C)c(C(=O)OCC(C)(C)C)c1C | > 200 | 110 µM | 
77 | CC1CC/C(=[N+](/C)Nc2ccc([N+](=O)[O-])cc2[N+](=O)[O-])C2CCC(C(C)C(=O)O)C=C12 (stereo not given) |  |  | inactive
78 | c1ccc2c(c1)[nH]c1c2c(N2CCOCC2)nn2cnnc12 | > 200 | > 200 µM | 
79 | CCSC(CCC(NC(C)=O)(C(=O)O)C(=O)O)SCC | > 200 | > 200 µM | 
80 | CC(=O)CC(=O)Nc1ccccc1C(F)(F)F | > 204 | > 204 µM | 
81 | Cc1c2c(n3c(nc4ccccc43)c1C#N)N(c1ccc(Cl)cc1)CC2 | > 50.1 | > 50.1 µM | 
82 | Cc1c(S(=O)c2cc(C(C)(C)C)c(O)c(CN3CCCC3)c2C)cc(C(C)(C)C)c(O)c1CN1CCCC1 | > 200 | 13.5 µM | 
83 | O=C1C=C2C(=NC34CCCCC3C(c3ccccc3)C3=C(c5ccccc5CC3)N24)c2ccccc21 (stereo not given) | 186 | > 200 µM | 
84 | Cc1cn(CC(=O)NCCCCO)c(=O)[nH]c1=O | > 200 | > 200 µM | 
